Source: ChEMBL document CHEMBL3997789, “N-(2-(arylmethylimino)ethyl)-7-chloroquinolin-4-amine derivatives, synthesized by thermal and ultrasonic means, are endowed with anti-Zika virus activity” (Eur J Med Chem, 2017)

Legend:
[1] = Cytotoxicity against African green monkey Vero cells after 72 hrs by XTT assay; assay type: cell-based; conditions: chlorocebus sabaeus
Zika virus [2] = test: Potency index, ratio of chloroquine EC50 to test compound EC50 for Zika virus; assay type: functional
Zika virus [3] = test: Antiviral activity against Zika virus infected in African green monkey Vero cells assessed as inhibition of viral RNA replication at 10 uM after 24 hrs by RT-PCR method relative to control; assay type: functional
[4] = Selectivity index, ratio of CC50 for African green monkey Vero cells to EC50 for Zika virus; assay type: toxicity; conditions: read-out: Ratio CC50/EC50
Zika virus [5] = test: Antiviral activity against Zika virus infected in African green monkey Vero cells assessed as inhibition of viral RNA replication after 24 hrs by RT-PCR method; assay type: functional
Vero = test: Cytotoxicity against African green monkey Vero cells assessed as reduction in cell viability at 10 uM after 72 hrs by XTT assay relative to control; assay type: cell-based; conditions: chlorocebus sabaeus

EC50 (Zika virus [5]) [µM]	Structure (SMILES)	CC50 at 72 h [1] [µM]	Ratio EC50 (Zika virus [2])	inhibition at 10 µM (Zika virus [3]) [%]	selectivity ratio [4]	Activity (Vero) [%]
1.5	O=[N+]([O-])c1ccc(C=NCCNc2ccnc3cc(Cl)ccc23)s1	478	10	78	318	
1.5	Fc1ccc(C=NCCNc2ccnc3cc(Cl)ccc23)cc1	534	10	75	356	
	COc1cc(C=NCCNc2ccnc3cc(Cl)ccc23)cc(OC)c1OC			41		
	CCN(CC)CCCC(C)Nc1ccnc2cc(Cl)ccc12 (stereo not drawn) [CHLOROQUINE]			47		
	Oc1ccccc1C=NCCNc1ccnc2cc(Cl)ccc12			57		
1.5	Clc1ccc2c(NCCN=Cc3ccncc3)ccnc2c1	571	10	74	380	
1.5	COc1cccc(OC)c1C=NCCNc1ccnc2cc(Cl)ccc12	458	10	75	305	
	Clc1ccc2c(NCCN=Cc3ccc(Br)cc3)ccnc2c1			52		
1.6	COc1cccc(C=NCCNc2ccnc3cc(Cl)ccc23)c1O	487	10	74	304	
	COc1ccccc1C=NCCNc1ccnc2cc(Cl)ccc12			70		
	Clc1ccc2c(NCCN=Cc3c(Cl)cccc3Cl)ccnc2c1					> 80
1.2	Clc1ccc2c(NCCN=Cc3ccccc3)ccnc2c1	489	10	76	407	
	O=[N+]([O-])c1cccc(C=NCCNc2ccnc3cc(Cl)ccc23)c1			59		
	COc1ccc(OC)c(C=NCCNc2ccnc3cc(Cl)ccc23)c1			51		
	Clc1ccc(C=NCCNc2ccnc3cc(Cl)ccc23)c(Cl)c1					> 80
	Clc1ccc2c(NCCN=Cc3ccccn3)ccnc2c1			70		
	Oc1cccc(C=NCCNc2ccnc3cc(Cl)ccc23)c1O					> 80
	NCCNc1ccnc2cc(Cl)ccc12			43		
	Cc1ccc(C=NCCNc2ccnc3cc(Cl)ccc23)cc1			66		
1.5	O=[N+]([O-])c1ccc(C=NCCNc2ccnc3cc(Cl)ccc23)cc1	512	10	82	341	
3.4	Clc1ccc2c(NCCN=Cc3cccnc3)ccnc2c1	578	5	80	170	
0.8	O=[N+]([O-])c1ccc(C=NCCNc2ccnc3cc(Cl)ccc23)o1	412	10	72	515	
